Results as given in PMC11111636 (EJNMMI Radiopharmacy and Chemistry, 2024).

Experiments:
U2OS.SSTR2 cells = assay: Uptake/internalization studies in U2OS.SSTR2 cells; type: cell-based, human
Method: Cells were seeded in 6-well plates 24 h before the experiment (7 × 10^5 cells/well). […] The membrane-bound fraction was collected by incubating cells with an acid buffer (50 mM glycine, 100 mM NaCl, pH 2.8) for 10 min at rt. The internalized fraction was determined by lysing the cells with 1 M NaOH for 5 min at rt. Both fractions were measured in a gamma counter, and data were analyzed in GraphPad Prism v9 and expressed as percentage of added dose.

[1] = Ex vivo biodistribution in H69-tumor bearing mice; conditions: mouse, in vivo
Method: (§1) Six-week‐old female Balb/c nu/nu‐specific mice (Janvier Labs, Le Genest‐Saint‐Isle, France) were housed in individually ventilated cages (4 mice/cage). Upon arrival, mice were acclimated for one week, with access to food and water ad libitum. Mice were subcutaneously inoculated on the right shoulder with NCI-H69 cells (5 × 10^6 cells) suspended in 100 μL of 1/3 Matrigel (Corning Inc.; Corning, NY, USA) and 2/3 Hank’s balanced salt solution (Gibco; Paisley, UK). NCI-H69 xenografts were allowed to grow for 2 weeks.
(§2) At 3 selected time points (1, 4 and 24 h; n = 4) p.i., blood was collected via retro-orbital puncture under isoflurane/O2 anesthesia, after which the mice were sacrificed via cervical dislocation. The tumor and organs of interest (heart, lungs, liver, spleen, stomach, large intestine, small intestine, pancreas, kidneys, muscle, skin, bone) were excised, washed in PBS and blotted dry. […] To determine the total injected radioactivity per animal, a calibration curve with indium-111 was established using the gamma counter. The percentage of injected dose per gram (% ID/g) was determined for each tissue and corrected for both the injected activity and % ID present at the injection site (the tail). Then, the tumor and the organs were placed in a petri dish and ex vivo optical imaging was performed with the IVIS Spectrum system (Perkin Elmer, Waltham, MA, USA) using the following settings for all measurements: FOV 19.5 cm, medium binning, f2, 60 s exposure with an excitation/emission filter of 646 nm/662 nm. Living Image version 4.5.2 software (Perkin Elmer) was used to perform data analysis by drawing regions of interest around the organ/tissue to quantify the radiant efficiency {(photons/second/cm^2/steradian)/(μW/cm^2)}.

[2] = test system: H69-xenograft Balb/c nu/nu mice; assay: Ex vivo biodistribution in H69-tumor bearing mice; conditions: for Uptake in Tumor: i.v., n = 4
Method: as §1, §2

Compound: C[C@@H](O)[C@H](NC(=O)[C@@H]1CSSC[C@H](NC(=O)[C@@H](Cc2ccccc2)NC(=O)CN2CCN(CC(=O)O)CCN(CC(=O)O)CCN(CC(=O)O)CC2)C(=O)N[C@@H](Cc2ccc(O)cc2)C(=O)N[C@H](Cc2c[nH]c3ccccc23)C(=O)N[C@@H](CCCCN)C(=O)N[C@@H]([C@@H](C)O)C(=O)N1)C(=O)O [[^111In]In-DOTA-TATE, metal not drawn, reference compound]
- Internalized fraction of radioactivity (U2OS.SSTR2 cells; 10^-9 M, 90 min, 37 °C): 94%
- Total uptake (U2OS.SSTR2 cells; 10^-9 M, 90 min, 37 °C, % of added dose per 1,000,000 cells, n = 3): 46.22 ± 4.58 % AD
- Cell uptake with excess of unlabeled DOTA-TATE (U2OS.SSTR2 cells; 50-fold excess DOTA-TATE): almost completely blocked
- tissue uptake at 4 h ([1]; Uptake in Intestines, 4 h block (co-injected 50 nmol DOTA-TATE), n = 4): 0.57 ± 0.35 %ID/g
- tissue uptake at 4 h ([1]; Uptake in Kidneys, 4 h block (co-injected 50 nmol DOTA-TATE), n = 4): 7.75 ± 1.03 %ID/g
- tissue uptake at 4 h ([1]; Uptake in Liver, 4 h block (co-injected 50 nmol DOTA-TATE), n = 4): 0.15 ± 0.08 %ID/g
- tissue uptake at 4 h ([1]; Uptake in Skin, 4 h block (co-injected 50 nmol DOTA-TATE), n = 4): 0.28 ± 0.13 %ID/g
- tissue uptake at 4 h ([1]; Uptake in Stomach, 4 h block (co-injected 50 nmol DOTA-TATE), n = 4): 0.1 ± 0.03 %ID/g
- tissue uptake at 1 h ([1]; iv, Uptake in Blood, 1 h p.i., n = 4): 0.41 ± 0.12 %ID/g
- tissue uptake at 24 h ([1]; iv, Uptake in Blood, 24 h p.i., n = 4): 0.04 ± 0.03 %ID/g
- tissue uptake at 4 h ([1]; iv, Uptake in Bones, 4 h p.i., n = 4): 0.13 ± 0.03 %ID/g
- tissue uptake at 24 h ([1]; iv, Uptake in Bones, 24 h p.i., n = 4): 0.14 ± 0.05 %ID/g
- tissue uptake at 1 h ([1]; iv, Uptake in Heart, 1 h p.i., n = 4): 0.16 ± 0.08 %ID/g
- tissue uptake at 4 h ([1]; iv, Uptake in Heart, 4 h p.i., n = 4): 0.04 %ID/g
- tissue uptake at 1 h ([1]; iv, Uptake in Intestines, 1 h p.i., n = 4): 0.74 ± 0.3 %ID/g
- tissue uptake at 4 h ([1]; iv, Uptake in Intestines, 4 h p.i., n = 4): 0.77 ± 0.24 %ID/g
- tissue uptake at 24 h ([1]; iv, Uptake in Intestines, 24 h p.i., n = 4): 0.13 ± 0.01 %ID/g
- tissue uptake at 1 h ([1]; iv, Uptake in Kidneys, 1 h p.i., n = 4): 12.2 ± 1.33 %ID/g
- tissue uptake at 4 h ([1]; iv, Uptake in Kidneys, 4 h p.i., n = 4): 10.6 ± 0.39 %ID/g
- tissue uptake at 24 h ([1]; iv, Uptake in Kidneys, 24 h p.i., n = 4): 6.93 ± 1.02 %ID/g
- tissue uptake at 1 h ([1]; iv, Uptake in Liver, 1 h p.i., n = 4): 0.21 ± 0.03 %ID/g
- tissue uptake at 4 h ([1]; iv, Uptake in Liver, 4 h p.i., n = 4): 0.16 ± 0.01 %ID/g
- tissue uptake at 24 h ([1]; iv, Uptake in Liver, 24 h p.i., n = 4): 0.08 ± 0.01 %ID/g
- tissue uptake at 1 h ([1]; iv, Uptake in Lungs, 1 h p.i., n = 4): 0.86 ± 0.09 %ID/g
- tissue uptake at 4 h ([1]; iv, Uptake in Lungs, 4 h p.i., n = 4): 0.52 ± 0.13 %ID/g
- tissue uptake at 4 h ([1]; iv, Uptake in Muscle, 4 h p.i., n = 4): 0.02 %ID/g
- tissue uptake at 24 h ([1]; iv, Uptake in Muscle, 24 h p.i., n = 4): 0.01 ± 0.01 %ID/g
- tissue uptake at 1 h ([1]; iv, Uptake in Pancreas, 1 h p.i., n = 4): 2.9 ± 0.6 %ID/g
- tissue uptake at 4 h ([1]; iv, Uptake in Pancreas, 4 h p.i., n = 4): 1.3 ± 0.1 %ID/g
- tissue uptake at 24 h ([1]; iv, Uptake in Pancreas, 24 h p.i., n = 4): 0.6 ± 0.05 %ID/g
- tissue uptake at 1 h ([1]; iv, Uptake in Skin): 0.49 ± 0.26 %ID/g
- tissue uptake at 4 h ([1]; iv, Uptake in Skin, 4 h p.i., n = 4): 0.29 ± 0.09 %ID/g
- tissue uptake at 24 h ([1]; iv, Uptake in Skin, 24 h p.i., n = 4): 0.13 ± 0.02 %ID/g
- tissue uptake at 24 h ([1]; iv, Uptake in Spleen): 0.11 ± 0.01 %ID/g
- tissue uptake at 4 h ([1]; iv, Uptake in Spleen, 4 h p.i., n = 4): 0.13 ± 0.02 %ID/g
- tissue uptake at 1 h ([1]; iv, Uptake in Stomach, 1 h p.i., n = 4): 1.84 ± 0.18 %ID/g
- tissue uptake at 4 h ([1]; iv, Uptake in Stomach, 4 h p.i., n = 4): 1.23 ± 0.16 %ID/g
- tissue uptake at 24 h ([1]; iv, Uptake in Stomach, 24 h p.i., n = 4): 0.51 ± 0.13 %ID/g
- tissue uptake at 1 h ([1]; iv, Uptake in Tumor, 1 h p.i., n = 4): ~5 %ID/g
- tissue uptake at 4 h ([1]; iv, Uptake in Tumor, 4 h p.i., n = 4): 5.47 ± 0.3 %ID/g
- tissue uptake at 24 h ([1]; iv, Uptake in Tumor, 24 h p.i., n = 4): ~3 %ID/g
- Uptake in Tumor ([2]; 1 h p.i.): 5.55 ± 1.31 % ID/g
- Tumor uptake reduction by co-injection of an excess of DOTA-TATE ([2]; 4 h p.i., compared to the unblocked group): 98%
- Uptake in Tumor ([2]; 24 h p.i.): 3.19 ± 0.29 % ID/g
